Peptide text beside a SMILES is read from it. * marks the point of attachment. C18 diacid = O=C(O)CCCCCCCCCCCCCCCCC(=O)*
Experiments:
[1] = Assay (IX) pK, T½ in mini-pig; format: in vivo, Göttingen mini-pigs; conditions: i.v.
Summary of the method: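 Female Göttingen mini-pigs (5–12 months, 15–35 kg, fed freely) received a single i.v. dose of approximately 5 nmol/kg via central venous catheter, typically n=3. Plasma was sampled from pre-dose to 240 h (sometimes 288 h) and quantified by LC-MS. T½ was derived by non-compartmental analysis from the terminal log-linear slope (ln2/λz).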

[2] = Assay (XVI) T½ and subcutaneous bioavailability in LYD-pigs; format: in vivo
Protocol: Assay (XVI)—Determination of T½ and Subcutaneous Bioavailability in LYD-Pigs
Pharmacokinetic (PK) studies in Landrace Yorkshire Duroc crossbreed (LYD) pigs were conducted in order to determine a) the protraction of the mimylin derivative after i.v. administration, and b) the bioavailability of the mimylin derivative after s.c. administration The LYD pig were delivered, treated and acclimatised as described in ASSAY XV above.
In the i.v. and s.c. studies, the mimylin derivative was dissolved in 50 mM phosphate, 70 mM sodium chloride and 0.05% polysorbate 80, pH=8.0 to a concentration of approximately 100 nmol/mL. Animals were dosed with 2 nmol/kg s.c. and 5 nmol/kg i.v.
The animals were dosed subcutaneously or intravenously as follows. […]
The plasma concentration of the respective mimylin derivative was analysed using LC-MS. Individual plasma concentration-time profiles were analysed by a non-compartmental model in Phoenix WinNonlin version 6.3 (Pharsight Inc., Mountain View, Calif., USA).
The resulting terminal half-life was determined based on intravenous administration. T½ is the terminal half-life=In2/λz and was determined from λz, the first order rate constant associated with the terminal (log-linear) portion of the curve, estimated by linear regression of time vs. log concentration.
The absolute bioavailability (F) was calculated as follows: […]

## CC(C)C[C@H](NC(=O)[C@H](C)NC(=O)[C@H](C)NC(=O)[C@@H](NC(=O)[C@H](CO)NC(=O)[C@H](CC(C)C)NC(=O)[C@H](CCC(=O)O)NC(=O)[C@H](CO)NC(=O)[C@H](C)NC(=O)[C@H](CCC(=O)O)NC(=O)CCCCCCCCCCCCCCCCC(=O)O)[C@@H](C)O)C(=O)NCC(=O)N[C@@H](CCCNC(=N)N)C(=O)N[C@@H](CC(C)C)C(=O)N[C@@H](CO)C(=O)N[C@@H](C)C(=O)N[C@@H](CCC(=O)O)C(=O)N[C@@H](CC(C)C)C(=O)N[C@@H](Cc1cnc[nH]1)C(=O)N[C@@H](CCC(=O)O)C(=O)N[C@@H](CC(C)C)C(=O)N[C@@H](C)C(=O)N[C@H](C(=O)N[C@@H](CC(C)C)C(=O)N1CCC[C@H]1C(=O)N[C@@H](CCCNC(=N)N)C(=O)N[C@H](C(=O)N[C@@H](CCC(=O)O)C(=O)N[C@H](C(=O)NCC(=O)N1CCC[C@H]1C(=O)N[C@@H](CCC(=O)O)C(=O)N[C@@H](CO)C(=O)N1CCC[C@H]1C(N)=O)[C@@H](C)O)[C@@H](C)O)[C@@H](C)O [Ex. #2, [N-terminal(C18 diacid)]mimylin] ({C18 diacid}-EASELSTAALGRLSAELHELATLPRTETGPESP-NH2)
[1]
  PK mini pig iv T½: 85 h
[2]; LYD-pigs
  Subcutaneous bioavailability (%): 99%
[2]; i.v., harmonic mean, n = 3
  LYD-pigs iv PK, t½: 64 h

Source: patent US9593149B2, “Amylin and calcitonin receptor agonist” (Novo Nordisk A/S, priority 2014, dated 2017)
